Experimental data taken from the NIST ThermoML archive (doi:10.1021/je400149j).

Test: relative permittivity at zero frequency (dimensionless); xn = mol fraction of the nth substance listed
Conditions: 101 kPa, Liquid, impedance/gain phase analyzer

C[S+](C)[O-] [dimethyl sulfoxide] + O
relative permittivity at zero frequency
Conditions | x1 = 0.1536 | x1 = 0.2496 | x1 = 0.3505 | x1 = 0.4975 | x1 = 0.5991 | x1 = 0.7039 | x1 = 0.7882 | x1 = 0.8297 | x1 = 0.9159 | x1 = 1
253.15 K | 91.94 | 88.58 | 84.04 | 76.79 | – | – | – | – | – | –
255.15 K | 91.25 | 87.74 | 83.36 | 76.23 | – | – | – | – | – | –
257.15 K | 90.45 | 86.97 | 82.67 | 75.63 | – | – | – | – | – | –
259.15 K | 89.61 | 86.2 | 82.03 | 75.1 | – | – | – | – | – | –
261.15 K | 88.8 | 85.42 | 81.31 | 74.51 | 69.37 | – | – | – | – | –
263.15 K | 87.94 | 84.64 | 80.65 | 73.97 | 68.84 | – | – | – | – | –
265.15 K | 87.11 | 83.94 | 79.97 | 73.39 | 68.38 | – | – | – | – | –
267.15 K | 86.34 | 83.09 | 79.33 | 72.86 | 67.89 | – | – | – | – | –
269.15 K | 85.49 | 82.43 | 78.71 | 72.29 | 67.37 | – | – | – | – | –
271.15 K | 84.69 | 81.68 | 78.01 | 71.63 | 66.92 | – | – | – | – | –
273.15 K | 83.99 | 80.92 | 77.39 | 71.06 | 66.4 | 60.97 | – | – | – | –
275.15 K | 83.16 | 80.24 | 76.74 | 70.47 | 65.94 | 60.58 | – | – | – | –
277.15 K | 82.38 | 79.52 | 75.92 | 69.92 | 65.48 | 60.19 | – | – | – | –
279.15 K | 81.7 | 78.75 | 75.25 | 69.35 | 65 | 59.84 | 56.06 | – | – | –
281.15 K | 80.98 | 78.14 | 74.63 | 68.84 | 64.52 | 59.46 | 55.83 | – | – | –
283.15 K | 80.31 | 77.42 | 74.04 | 68.36 | 64.1 | 59.05 | 55.54 | 53.95 | – | –
285.15 K | 79.54 | 76.72 | 73.46 | 67.82 | 63.61 | 58.67 | 55.2 | 53.67 | – | –
287.15 K | 78.93 | 76.14 | 72.79 | 67.3 | 63.09 | 58.31 | 54.84 | 53.38 | 50.53 | –
289.15 K | 78.19 | 75.4 | 72.06 | 66.67 | 62.58 | 57.91 | 54.52 | 53.01 | 50.3 | –
291.15 K | 77.43 | 74.76 | 71.47 | 66.13 | 62.13 | 57.57 | 54.21 | 52.68 | 50.06 | 47.15
293.15 K | 76.72 | 74.13 | 70.84 | 65.63 | 61.65 | 57.17 | 53.82 | 52.36 | 49.79 | 47.09
295.15 K | 75.97 | 73.52 | 70.29 | 65.13 | 61.23 | 56.81 | 53.45 | 52.06 | 49.53 | 46.84
297.15 K | 75.33 | 72.88 | 69.71 | 64.67 | 60.76 | 56.37 | 53.1 | 51.72 | 49.27 | 46.64
299.15 K | 74.63 | 72.11 | 69 | 64.12 | 60.32 | 55.99 | 52.77 | 51.42 | 49 | 46.39
301.15 K | 74.02 | 71.48 | 68.41 | 63.63 | 59.83 | 55.59 | 52.41 | 51 | 48.75 | 46.18
303.15 K | 73.34 | 70.83 | 67.88 | 63.07 | 59.38 | 55.21 | 52.03 | 50.7 | 48.48 | 45.94
305.15 K | 72.66 | 70.21 | 67.29 | 62.57 | 58.95 | 54.82 | 51.63 | 50.38 | 48.21 | 45.63
307.15 K | 72.02 | 69.63 | 66.63 | 62.12 | 58.51 | 54.47 | 51.27 | 50.04 | 47.94 | 45.39
309.15 K | 71.28 | 69.05 | 66.07 | 61.59 | 58.1 | 54.05 | 50.9 | 49.68 | 47.64 | 45.14
311.15 K | 70.73 | 68.39 | 65.52 | 61.06 | 57.64 | 53.66 | 50.51 | 49.39 | 47.35 | 44.88
313.15 K | 70.05 | 67.84 | 64.91 | 60.58 | 57.16 | 53.28 | 50.11 | 49.02 | 47.09 | 44.64
315.15 K | 69.51 | 67.3 | 64.33 | 60.13 | 56.72 | 52.92 | 49.73 | 48.67 | 46.85 | 44.34
317.15 K | 68.91 | 66.79 | 63.77 | 59.56 | 56.28 | 52.56 | 49.39 | 48.36 | 46.53 | 44.11
319.15 K | 68.26 | 66.18 | 63.12 | 59.12 | 55.79 | 52.15 | 49.09 | 48 | 46.26 | 43.87
321.15 K | 67.66 | 65.6 | 62.59 | 58.67 | 55.33 | 51.79 | 48.75 | 47.69 | 45.99 | 43.58
323.15 K | 67.01 | 65.07 | 62.03 | 58.11 | 54.85 | 51.43 | 48.37 | 47.33 | 45.72 | 43.31
325.15 K | 66.49 | 64.43 | 61.49 | 57.67 | 54.36 | 51.04 | 48.03 | 47 | 45.4 | 43.07
327.15 K | 65.83 | 63.89 | 60.98 | 57.18 | 54 | 50.64 | 47.64 | 46.66 | 45.12 | 42.78
329.15 K | 65.27 | 63.35 | 60.4 | 56.69 | 53.52 | 50.25 | 47.27 | 46.35 | 44.82 | 42.56
331.15 K | 64.72 | 62.78 | 59.87 | 56.23 | 53.03 | 49.87 | 46.94 | 45.99 | 44.53 | 42.27
333.15 K | 64.08 | 62.18 | 59.28 | 55.72 | 52.61 | 49.49 | 46.57 | 45.67 | 44.23 | 42
